In patent US5637583A, “Aminocyclohexylesters and uses thereof” (University of British Columbia, priority 1994, dated 1997):
Structures can show the parent of a compound that is named as a salt. Where two headings read alike, the source gives them in different places.

Legend:
[1] = system: conscious rats subject to coronary artery occlusion; assay: Antiarrhythmic efficacy: incidence of cardiac arrhythmias in conscious rats subject to coronary artery occlusion; assay type: in vivo, rat; conditions: score 0-9 per Table 2, 30 min after occlusion
Procedure: Antiarrhythmic efficacy was assessed by investigating the effect of a compound on the incidence of cardiac arrhythmias in conscious rats subject to coronary artery occlusion. Rats weighing 200-300 gms were subjected to preparative surgery and assigned to groups in a random block design. In each case, the animal was anesthetized with halothane during surgical preparation. The left femoral artery was cannulated for measurement of mean arterial blood pressure and withdrawal of blood samples. The left femoral vein was also cannulated for injection of drugs. The thoracic cavity was opened and a polyethylene occluder loosely placed around the left anterior descending coronary artery. The thoracic cavity was then closed. ECG was recorded by insertion of electrodes placed along the anatomical axis of the heart. All cannulae and electrode leads were exteriorized in the mid scapular region. In random and double-blind manner, about 0.5 to 2 hours post-surgery, an infusion of vehicle, or the compound to be tested was given. After 15 minutes infusion, the occluder was pulled so as to produce coronary artery occlusion. ECG, arrhythmias, blood pressure, heart rate and mortality were monitored for 30 minutes after occlusion. Arrhythmias were recorded as ventricular tachycardia (VT) and ventricular fibrillation (VF) and scored according to Curtis, M. J. and Walker, M. J. A., Cardiovasc.
VPB=ventricular premature beats
VT=ventricular tachycardia
VF=ventricular fibrillation
Occlusion is associated with increases in R-wave height and "S-T" segment elevation; and an occluded zone (measured after death by cardiogreen dye perfusion) in the range of 25%-50% of total left-ventricular weight.

cardiac sodium channel [2] = molecular target: T1, cardiac sodium channel (Rattus norvegicus, UniProt P15389); assay: ECG parameters in anesthetized rats (RSh, PR, QRS; cardiac sodium channel blockade); assay type: in vivo; conditions: i.v. bolus; for ED25 PR (dose required to produce a 25% increase): P-R interval; for ED25 QRS (dose required to produce a 25% increase): QRS interval
T1 sequence (P15389 whole entry): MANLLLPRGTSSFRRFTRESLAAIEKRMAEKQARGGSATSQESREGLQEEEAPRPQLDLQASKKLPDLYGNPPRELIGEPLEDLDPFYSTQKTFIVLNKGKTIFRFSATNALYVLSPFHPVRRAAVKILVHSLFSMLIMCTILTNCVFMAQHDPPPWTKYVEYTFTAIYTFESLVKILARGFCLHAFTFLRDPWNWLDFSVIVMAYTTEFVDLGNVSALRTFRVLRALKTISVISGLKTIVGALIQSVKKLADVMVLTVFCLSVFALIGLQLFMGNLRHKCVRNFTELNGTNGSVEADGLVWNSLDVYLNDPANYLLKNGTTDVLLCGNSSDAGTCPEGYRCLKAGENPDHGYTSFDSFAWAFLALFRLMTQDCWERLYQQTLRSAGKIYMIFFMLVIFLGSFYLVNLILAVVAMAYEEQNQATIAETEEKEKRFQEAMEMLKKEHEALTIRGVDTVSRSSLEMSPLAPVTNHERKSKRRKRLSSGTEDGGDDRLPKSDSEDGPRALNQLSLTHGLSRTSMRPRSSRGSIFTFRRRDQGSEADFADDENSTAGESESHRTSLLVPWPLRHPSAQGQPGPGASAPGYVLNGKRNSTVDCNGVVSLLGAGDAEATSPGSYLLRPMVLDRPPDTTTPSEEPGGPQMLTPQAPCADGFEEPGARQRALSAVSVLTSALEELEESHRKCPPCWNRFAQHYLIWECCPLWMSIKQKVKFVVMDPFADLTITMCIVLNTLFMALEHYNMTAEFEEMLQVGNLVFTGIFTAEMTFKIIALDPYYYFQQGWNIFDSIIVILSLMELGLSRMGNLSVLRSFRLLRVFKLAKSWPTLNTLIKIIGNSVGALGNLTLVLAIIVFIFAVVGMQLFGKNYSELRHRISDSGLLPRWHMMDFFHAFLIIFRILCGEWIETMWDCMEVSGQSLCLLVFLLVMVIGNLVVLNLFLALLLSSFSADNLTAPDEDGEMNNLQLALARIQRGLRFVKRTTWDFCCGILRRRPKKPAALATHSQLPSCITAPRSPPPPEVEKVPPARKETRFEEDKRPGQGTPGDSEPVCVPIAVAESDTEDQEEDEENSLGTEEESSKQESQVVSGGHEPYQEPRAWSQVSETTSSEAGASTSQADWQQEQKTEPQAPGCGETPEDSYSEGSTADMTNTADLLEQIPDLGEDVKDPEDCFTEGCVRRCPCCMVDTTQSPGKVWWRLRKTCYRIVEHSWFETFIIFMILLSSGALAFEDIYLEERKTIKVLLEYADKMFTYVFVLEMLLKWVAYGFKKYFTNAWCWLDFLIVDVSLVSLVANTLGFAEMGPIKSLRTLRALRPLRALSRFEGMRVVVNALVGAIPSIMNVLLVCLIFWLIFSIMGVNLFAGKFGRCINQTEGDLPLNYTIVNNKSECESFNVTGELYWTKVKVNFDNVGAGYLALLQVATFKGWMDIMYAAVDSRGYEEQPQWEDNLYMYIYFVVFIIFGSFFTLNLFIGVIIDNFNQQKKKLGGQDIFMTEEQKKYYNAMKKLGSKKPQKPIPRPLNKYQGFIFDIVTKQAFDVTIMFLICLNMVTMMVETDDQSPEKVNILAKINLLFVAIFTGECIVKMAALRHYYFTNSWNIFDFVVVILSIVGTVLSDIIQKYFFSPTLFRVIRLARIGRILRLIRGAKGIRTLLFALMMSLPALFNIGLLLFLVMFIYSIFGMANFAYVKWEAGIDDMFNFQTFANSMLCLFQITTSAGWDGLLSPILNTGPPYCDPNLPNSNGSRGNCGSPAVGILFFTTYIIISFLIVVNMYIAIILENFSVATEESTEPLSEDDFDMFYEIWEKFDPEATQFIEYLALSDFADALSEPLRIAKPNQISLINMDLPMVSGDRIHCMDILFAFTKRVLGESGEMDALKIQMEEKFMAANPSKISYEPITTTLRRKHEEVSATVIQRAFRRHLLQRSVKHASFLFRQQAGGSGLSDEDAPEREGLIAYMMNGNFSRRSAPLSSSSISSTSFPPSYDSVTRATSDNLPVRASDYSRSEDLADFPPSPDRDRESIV
Procedure: Rats weighing 200-250 gms were used in this example. Animals were anesthetized with 60 mg/kg pentobarbitone i.p. The carotid artery and jugular vein were cannulated for measurement of blood pressure and drug injection, respectively. ECG was recorded by insertion of electrodes placed along the anatomical axis of the heart. All compounds were given as bolus injections.
Various ECG parameters were measured. The most sensitive of these for measuring sodium channel blockade is RSh (J. Pharmacology Methods 27:51-58 (1992)). Table 4 describes the results of the tests as ED25 (micromoles/kg) which are the doses required to produce a 25% increase in the parameter measured (ne=not estimated). The increases in P-R interval, QRS interval and RSh indicate cardiac sodium channel blockade while the increase in Q-T interval indicates ancillary cardiac potassium channel blockade which is the property of a type 1 a antiarrhythmic.

cardiac sodium channel [3] = molecular target: T1, cardiac sodium channel; assay: Electrical stimulation of left ventricle in rats (iT, VFT; cardiac sodium channel blockade); assay type: in vivo; conditions: infusion rate for 25% increase from control; anesthetized rats
Procedure: Rats were prepared according to the preceding procedure. Two silver stimulating electrodes were inserted through the chest wall and implanted in the left ventricle. Square wave stimulation was used to determine threshold current for capture, ventricular fibrillation threshold current, and effective refractory period (Howard, P. G. and Walker, M. J. A., Proc. West. Pharmacol. Soc. 33:123-127 (1990)). Table 5 contains ED25 values for these indices of cardiac sodium channel blockade, where the ED25 is the infusion rate in micromoles/kg/minute of compound required to elicit a 25% increase from control. The increases in refractoriness indicate ancillary blockade of potassium channels. The threshold current for capture is represented by "iT". The fibrillation threshold current is represented by "VFT". The effective refracting period is represented by "ERP".

potassium channels = assay: Electrical stimulation of left ventricle in rats (ERP; ancillary blockade of potassium channels); assay type: in vivo, rat; conditions: infusion rate for 25% increase from control; anesthetized rats
Excerpt: Two silver stimulating electrodes were inserted through the chest wall and implanted in the left ventricle. Square wave stimulation was used to determine threshold current for capture, ventricular fibrillation threshold current, and effective refractory period (Howard, P. G. and Walker, M. J. A., Proc. West. Pharmacol. Soc. 33:123-127 (1990)). […] The threshold current for capture is represented by "iT". The fibrillation threshold current is represented by "VFT". The effective refracting period is represented by "ERP".

[4] = system: cardiac potassium channel; assay: ECG parameters in anesthetized rats (QT; ancillary cardiac potassium channel blockade); assay type: in vivo, rat; conditions: i.v. bolus, Q-T interval
Procedure: Various ECG parameters were measured. […] The increases in P-R interval, QRS interval and RSh indicate cardiac sodium channel blockade while the increase in Q-T interval indicates ancillary cardiac potassium channel blockade which is the property of a type 1 a antiarrhythmic.

cardiac sodium channel [5] = molecular target: T1, cardiac sodium channel; assay: Whole cell voltage clamp tests, single isolated adult rat cardiac cells; assay type: cell-based
Procedure: In order to directly measure cardiac sodium channel blockade, standard whole cell voltage clamp tests were carried out using single isolated adult rat cardiac cells. Results in the form of EC50 values, which are micromolar concentrations required to produce a 50% reduction in sodium current, are presented in Table 6.

phrenic nerve diaphragm = assay: Nerve conduction blockade in vitro, phrenic nerve diaphragm; conditions: Rattus norvegicus, read-out: concentration at which the twitch response from electrical stimulation is reduced to 50% of control value
Procedure: In order to establish the potency of the compounds to block nerve conduction, two in vitro assays were used. The first was the phrenic nerve diaphragm of the rat. […] Nerve blockade in these preparations is indicative of local anesthetic activity. Compounds were administered to the bath solution in increasing concentrations while the preparations were being stimulated with regular electrical impulses.

[6] = system: hypogastric nerve vas deferens; assay: Nerve conduction blockade in vitro, hypogastric nerve vas deferens; conditions: read-out: concentration at which the twitch response from electrical stimulation is reduced to 50% of control value
Procedure: In order to establish the potency of the compounds to block nerve conduction, two in vitro assays were used. The first was the phrenic nerve diaphragm of the rat. The second was the hypogastric nerve vas deferens. Nerve blockade in these preparations is indicative of local anesthetic activity. Compounds were administered to the bath solution in increasing concentrations while the preparations were being stimulated with regular electrical impulses.

[7] = dose 8 micromoles/kg/min infusion
[8] = whole cell voltage clamp, isolated adult rat cardiac cells, read-out: EC50 (concentration required to produce a 50% reduction in sodium current)
[9] = dose 4 micromoles/kg/min infusion

Cl.O=C(O[C@@H]1CCCC[C@H]1N1CCOCC1)c1cccc2ccccc12 (racemic) [Compound #15, (±)-trans-[2-(4-morpholinyl)cyclohexyl]-1-naphthoate monohydrochloride]
AS (arrhythmia score) ([1]; dose 12 micromoles/kg/min infusion): 2 | ED25 PR (dose required to produce a 25% increase) (cardiac sodium channel [2]): 340 µmol/kg | ED25 QRS (dose required to produce a 25% increase) (cardiac sodium channel [2]): 90 µmol/kg | ED25 RSh (dose required to produce a 25% increase) (cardiac sodium channel [2]): 80 µmol/kg | ED25 VFT (fibrillation threshold current) (cardiac sodium channel [3]): 18 µmol/kg/min | ED25 iT (threshold current for capture) (cardiac sodium channel [3]): 33 µmol/kg/min | ED25 ERP (effective refractory period) (potassium channels): 20 µmol/kg/min

Cl.O=C(Cc1cccc2sccc12)O[C@@H]1CCCC[C@H]1N1CCOCC1 (racemic) [Compound #16, (±)-trans-[2-(4-morpholinyl)cyclohexyl]benzo[b]thiophene-4-acetate monohydrochloride]
AS (arrhythmia score) [1, 7]: 0.3 | ED25 PR (dose required to produce a 25% increase) (cardiac sodium channel [2]): 230 µmol/kg | ED25 QRS (dose required to produce a 25% increase) (cardiac sodium channel [2]): 690 µmol/kg | ED25 RSh (dose required to produce a 25% increase) (cardiac sodium channel [2]): 23 µmol/kg | ED25 QT (dose required to produce a 25% increase) [4]: 33 µmol/kg | ED25 VFT (fibrillation threshold current) (cardiac sodium channel [3]): 2 µmol/kg/min | ED25 iT (threshold current for capture) (cardiac sodium channel [3]): 15 µmol/kg/min | ED25 ERP (effective refractory period) (potassium channels): 5 µmol/kg/min | EC50 (cardiac sodium channel [5]; [8]): 225 µM

O=C(COc1ccc(Cl)c(Cl)c1)O[C@@H]1CCCC[C@H]1N1CCCC1 (relative stereo) [Compound #1, (±)-trans-[2-(1-pyrrolidinyl)cyclohexyl](3,4-dichlorophenoxy)acetate monohydrochloride]
ED25 PR (dose required to produce a 25% increase) (cardiac sodium channel [2]): 17 µmol/kg | ED25 RSh (dose required to produce a 25% increase) (cardiac sodium channel [2]): 10 µmol/kg | ED25 QT (dose required to produce a 25% increase) [4]: 78 µmol/kg | ED25 VFT (fibrillation threshold current) (cardiac sodium channel [3]): 3 µmol/kg/min | ED25 iT (threshold current for capture) (cardiac sodium channel [3]): 6 µmol/kg/min | ED25 ERP (effective refractory period) (potassium channels): 4 µmol/kg/min | EC50 (cardiac sodium channel [5]): 200 µM | IC50 (phrenic nerve diaphragm): 90 µM | IC50 [6]: 40 µM

O=C(COc1ccc(Cl)c(Cl)c1)O[C@@H]1CCCC[C@H]1N1CC2CCC(CC2)C1 (relative stereo) [Compound #3, (±)-trans-{2-[N-(3-azabicyclo[3.2.2]nonyl)]cyclohexyl}(3,4-dichlorophenoxy)acetate monohydrochloride]
ED25 PR (dose required to produce a 25% increase) (cardiac sodium channel [2]): 140 µmol/kg | ED25 QRS (dose required to produce a 25% increase) (cardiac sodium channel [2]): 130 µmol/kg | ED25 RSh (dose required to produce a 25% increase) (cardiac sodium channel [2]): 140 µmol/kg | ED25 QT (dose required to produce a 25% increase) [4]: 160 µmol/kg | EC50 (cardiac sodium channel [5]): > 150 µM | IC50 (phrenic nerve diaphragm): 200 µM | IC50 [6]: 300 µM

O=C(COc1ccc(Cl)c(Cl)c1)O[C@@H]1CCCC[C@H]1N1CCOCC1 (relative stereo) [Compound #4, (±)-trans-[2-(4-morpholinyl)cyclohexyl](3,4-dichlorophenoxy)acetate monohydrochloride]
AS (arrhythmia score) ([1]; dose 5 micromoles/kg/min infusion): 3.6 | ED25 PR (dose required to produce a 25% increase) (cardiac sodium channel [2]): 44 µmol/kg | ED25 RSh (dose required to produce a 25% increase) (cardiac sodium channel [2]): 10 µmol/kg | EC50 (cardiac sodium channel [5]; [8]): > 500 µM

O=C(COc1ccc(Cl)c(Cl)c1)O[C@@H]1CCCC[C@H]1N1CCCCCC1 (relative stereo) [Compound #5, (±)-trans-[2-(1-hexahydroazepinyl)cyclohexyl](3,4-dichlorophenoxy)acetate monohydrochloride]
AS (arrhythmia score) [1, 9]: 3 | ED25 PR (dose required to produce a 25% increase) (cardiac sodium channel [2]): 43 µmol/kg | ED25 QRS (dose required to produce a 25% increase) (cardiac sodium channel [2]): 66 µmol/kg | ED25 RSh (dose required to produce a 25% increase) (cardiac sodium channel [2]): 36 µmol/kg | ED25 QT (dose required to produce a 25% increase) [4]: 45 µmol/kg | ED25 VFT (fibrillation threshold current) (cardiac sodium channel [3]): 4 µmol/kg/min | ED25 iT (threshold current for capture) (cardiac sodium channel [3]): 5 µmol/kg/min | ED25 ERP (effective refractory period) (potassium channels): 4 µmol/kg/min | IC50 (phrenic nerve diaphragm): 180 µM | IC50 [6]: 100 µM

O=C(CC1CCCCC1)O[C@@H]1CCCC[C@H]1N1CCCC1 (relative stereo) [Compound #7, (±)-trans-[2-(1-pyrrolidinyl)cyclohexyl](cyclohexyl)acetate monohydrochloride]
ED25 PR (dose required to produce a 25% increase) (cardiac sodium channel [2]): 84 µmol/kg | ED25 RSh (dose required to produce a 25% increase) (cardiac sodium channel [2]): 6 µmol/kg | ED25 QT (dose required to produce a 25% increase) [4]: 41 µmol/kg

O=C(Cc1cccc2ccccc12)O[C@@H]1CCCC[C@H]1N1CCOCC1 (relative stereo) [Compound #8, (±)-trans-[2-(4-morpholinyl)cyclohexyl]naphthyl-1-acetate monohydrochloride]
AS (arrhythmia score) ([1]; dose 2 micromoles/kg/min infusion): 3 | ED25 PR (dose required to produce a 25% increase) (cardiac sodium channel [2]): 20 µmol/kg | ED25 QRS (dose required to produce a 25% increase) (cardiac sodium channel [2]): 42 µmol/kg | ED25 RSh (dose required to produce a 25% increase) (cardiac sodium channel [2]): 11 µmol/kg | ED25 QT (dose required to produce a 25% increase) [4]: 57 µmol/kg | ED25 VFT (fibrillation threshold current) (cardiac sodium channel [3]): 2 µmol/kg/min | ED25 iT (threshold current for capture) (cardiac sodium channel [3]): 5 µmol/kg/min | ED25 ERP (effective refractory period) (potassium channels): 4 µmol/kg/min | EC50 (cardiac sodium channel [5]; [8]): 80 µM

O=C(Cc1ccc2ccccc2c1)O[C@@H]1CCCC[C@H]1N1CCOCC1 (relative stereo) [Compound #9, (±)-trans-[2-(4-morpholinyl)cyclohexyl]naphthyl-2-acetate monohydrochloride]
AS (arrhythmia score) [1, 9]: 1.3 | ED25 RSh (dose required to produce a 25% increase) (cardiac sodium channel [2]): 13 µmol/kg | ED25 QT (dose required to produce a 25% increase) [4]: 20 µmol/kg | ED25 VFT (fibrillation threshold current) (cardiac sodium channel [3]): 7 µmol/kg/min | ED25 iT (threshold current for capture) (cardiac sodium channel [3]): 34 µmol/kg/min | ED25 ERP (effective refractory period) (potassium channels): 8 µmol/kg/min | EC50 (cardiac sodium channel [5]; [8]): > 100 µM

O=C(Cc1ccccc1)O[C@@H]1CCCC[C@H]1N1CCOCC1 (relative stereo) [Compound #10, (±)-trans-[2-(4-morpholinyl)cyclohexyl]phenylacetate monohydrochloride]
AS (arrhythmia score) ([1]; dose 10 micromoles/kg/min infusion): 2.2 | ED25 RSh (dose required to produce a 25% increase) (cardiac sodium channel [2]): 16 µmol/kg | ED25 QT (dose required to produce a 25% increase) [4]: 25 µmol/kg | ED25 VFT (fibrillation threshold current) (cardiac sodium channel [3]): 1 µmol/kg/min | ED25 iT (threshold current for capture) (cardiac sodium channel [3]): 15 µmol/kg/min | ED25 ERP (effective refractory period) (potassium channels): 8 µmol/kg/min | EC50 (cardiac sodium channel [5]): > 300 µM

O=C(Cc1ccc([N+](=O)[O-])cc1)O[C@@H]1CCCC[C@H]1N1CCOCC1 (relative stereo) [Compound #12, (+5-trans-[2-(4-morpholinyl)cyclohexyl](4-nitrophenyl)acetatemonohydrochloride]
AS (arrhythmia score) [1, 7]: 3 | ED25 PR (dose required to produce a 25% increase) (cardiac sodium channel [2]): 64 µmol/kg | ED25 QRS (dose required to produce a 25% increase) (cardiac sodium channel [2]): 82 µmol/kg | ED25 RSh (dose required to produce a 25% increase) (cardiac sodium channel [2]): 17 µmol/kg | ED25 QT (dose required to produce a 25% increase) [4]: 44 µmol/kg | ED25 VFT (fibrillation threshold current) (cardiac sodium channel [3]): 5 µmol/kg/min | ED25 iT (threshold current for capture) (cardiac sodium channel [3]): 4 µmol/kg/min | ED25 ERP (effective refractory period) (potassium channels): 6 µmol/kg/min | EC50 (cardiac sodium channel [5]; [8]): > 300 µM
